Experimental data taken from patent US20160120865A1, “TOPICAL TREATMENT OF LOCALIZED SCLERODERMA” (PRECISION DERMATOLOGY, INC., priority 2013, published 2016).

Tested on: TGFβ activated genes
Test: TGF-β osmotic pump mouse skin model, gene expression by nanostring
Format: in vivo, C57BL/6 mice
Design: key to Adam12 expression, TGFb/TGFbimatinib / spp1 expression, TGFb/TGFbimatinib / Thbs1 expression, TGFb/TGFbimatinib / Col1a1 expression, TGFb/TGFbimatinib / Sfrp2 expression, TGFb/TGFbimatinib / acta2 expression, TGFb/TGFbimatinib / Angpt2 expression, TGFb/TGFbimatinib / lox expression, TGFb/TGFbimatinib / Fmod expression, TGFb/TGFbimatinib / Wisp1 expression, TGFb/TGFbimatinib / serpine1 expression, TGFb/TGFbimatinib: TGFβ treatment works and the effect is blocked by imatinib in the local skin (+); DS+ skin (−)
Conditions: for serpine1 expression, TGFb/TGFbimatinib / Adam12 expression, TGFb/TGFbimatinib / spp1 expression, TGFb/TGFbimatinib / Thbs1 expression, TGFb/TGFbimatinib / Col1a1 expression, TGFb/TGFbimatinib / Sfrp2 expression, TGFb/TGFbimatinib / acta2 expression, TGFb/TGFbimatinib / Angpt2 expression, TGFb/TGFbimatinib / lox expression, TGFb/TGFbimatinib / Fmod expression, TGFb/TGFbimatinib / Wisp1 expression, TGFb/TGFbimatinib: imatinib cream topical 2 times per day, 7 days; for serpine1 expression, TGFb/TGFbimatinib: FIG. 3; for Adam12 expression, TGFb/TGFbimatinib: FIG. 4; for spp1 expression, TGFb/TGFbimatinib: FIG. 5; for Thbs1 expression, TGFb/TGFbimatinib: FIG. 6; for Col1a1 expression, TGFb/TGFbimatinib: FIG. 7; for Sfrp2 expression, TGFb/TGFbimatinib: FIG. 8; for acta2 expression, TGFb/TGFbimatinib: FIG. 9; for Angpt2 expression, TGFb/TGFbimatinib: FIG. 10; for lox expression, TGFb/TGFbimatinib: FIG. 11; for Fmod expression, TGFb/TGFbimatinib: FIG. 12; for Wisp1 expression, TGFb/TGFbimatinib: FIG. 13
Description: C57BL/6 mice were obtained from The Jackson Laboratory (Bar Harbor, Me.). Osmotic pumps (Alzet, model 2001) designed to deliver 1 μL/h were loaded with TGF-β (1.25 μg) in phosphate buffered saline (PBS) supplemented with 0.1 mg/mL bovine serum albumin (BSA). Pumps were implanted subcutaneously in 8-week-old mice, who were subsequently treated with imatinib or placebo cream. After […], mice were sacrificed, and the skin (˜1 cm^2) surrounding the pump outlet was homogenized in TRIzol (Invitrogen) for preparation of RNA, or fixed in formalin. Skin from mice treated with PBS and TGF-β was analyzed using nanostring technology. A set of 50 genes including inflammatory genes, macrophages markers, TGF-β-regulated genes, and others were analyzed. 100 ng of RNA per sample was used and gene expression was normalized to the expression of 8 housekeeping-genes.
TGFb 2.5 μg/mL in 7 day Alzet pump.
imatinib cream topical application 7 days (2 times per day)
(3) −DS=Far from local skin

Cc1ccc(NC(=O)c2ccc(CN3CCN(C)CC3)cc2)cc1Nc1nccc(-c2cccnc2)n1 [imatinib]
serpine1 expression, TGFb/TGFbimatinib (DS+ (near local skin)): (−)
Adam12 expression, TGFb/TGFbimatinib (DS+ (near local skin)): (−)
spp1 expression, TGFb/TGFbimatinib (DS+ (near local skin)): (−)
Thbs1 expression, TGFb/TGFbimatinib (DS+ (near local skin)): (−)
Col1a1 expression, TGFb/TGFbimatinib (DS+ (near local skin)): (−)
Sfrp2 expression, TGFb/TGFbimatinib (DS+ (near local skin)): (−)
acta2 expression, TGFb/TGFbimatinib (DS+ (near local skin)): (−)
Angpt2 expression, TGFb/TGFbimatinib (DS+ (near local skin)): (−)
lox expression, TGFb/TGFbimatinib (DS+ (near local skin)): (−)
Fmod expression, TGFb/TGFbimatinib (DS+ (near local skin)): (−)
Wisp1 expression, TGFb/TGFbimatinib (DS+ (near local skin)): (−)
serpine1 expression, TGFb/TGFbimatinib (LS (local skin)): (+)
Adam12 expression, TGFb/TGFbimatinib (LS (local skin)): (+)
spp1 expression, TGFb/TGFbimatinib (LS (local skin)): (+)
Thbs1 expression, TGFb/TGFbimatinib (LS (local skin)): (+?)
Col1a1 expression, TGFb/TGFbimatinib (LS (local skin)): (+)
Sfrp2 expression, TGFb/TGFbimatinib (LS (local skin)): (+)
acta2 expression, TGFb/TGFbimatinib (LS (local skin)): (+)
Angpt2 expression, TGFb/TGFbimatinib (LS (local skin)): (+)
lox expression, TGFb/TGFbimatinib (LS (local skin)): (+)
Fmod expression, TGFb/TGFbimatinib (LS (local skin)): (+)
Wisp1 expression, TGFb/TGFbimatinib (LS (local skin)): (+)
effect of TGFβ treatment in skin (local skin (+) and DS+ skin (−), topical imatinib cream): blocked
activation of TGFβ activated genes (mouse skin, topical imatinib cream): inhibits the activation of these genes
